This is an account of results in PubChem BioAssay (NCI).

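Growth conditions: 96-well plates. Treatment: test compound, 48 hours, 5 concentrations. Analysis: linear interpolation between bracketing concentrations; unreached endpoints set to highest concentration. The concentration for 50% growth inhibition is given as GI50. TGI: total growth inhibition.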 Where a SMILES comes first, the peptide text is derived from it. [ ]: non-standard residue; d: D form. Phe(4-Cl) = N[CH](Cc1ccc(Cl)cc1)C(=O)O Where only a bound is given, the exact number is not on record here.

Some test systems named below: MDA-N; SNB-78 CNS; KM20L2 colon; LXFL 529 NSCLC; DLD-1 colon; DMS 273 small cell lung; M19-MEL melanoma; XF 498 CNS; RXF-631 renal.
Assay in all cases: NCI-60 cell line screen, 48 h

Compound `O=C1c2ccccc2-c2c1c1ccccc1c(=O)n2Cc1ccccc1` came in with a TGI in the experiment with MDA-N of more than 100 µM.
Consider `N.N.N.N.N.O=C([O-])c1nn[n-]n1.[Cl-].[Co+3]`, for which the GI50 in the experiment with SNB-78 CNS, in the experiment with KM20L2 colon, in the experiment with LXFL 529 NSCLC, in the experiment with DLD-1 colon and in the experiment on DMS 273 small cell lung was more than 100 µM throughout. Besides, the TGI with SNB-78 CNS, with KM20L2 colon, in the experiment on LXFL 529 NSCLC, in the experiment on DLD-1 colon and in the experiment with DMS 273 small cell lung was more than 100 µM throughout.
Regarding `O=C(O)CN(c1ccccc1)S(=O)(=O)c1ccccc1[N+](=O)[O-]`, the TGI with M19-MEL melanoma, in the experiment on KM20L2 colon, in the experiment on LXFL 529 NSCLC, with XF 498 CNS, with RXF-631 renal and in the experiment with DLD-1 colon was more than 100 µM in each case. For the same compound, the TGI in the experiment with DMS 273 small cell lung is more than 100 µM.
`Nc1ccc(/C=C/c2ccnc3ccccc23)cc1`: the TGI was 90 µM in the experiment on M19-MEL melanoma; 46.6 µM with KM20L2 colon; 58.7 µM in the experiment with LXFL 529 NSCLC; more than 100 µM in the experiment on DLD-1 colon; 48.9 µM in the experiment on DMS 273 small cell lung.
As for `CCOC(=O)NC(=O)c1cn(CCOCCOC(=O)NCCCCCCNC(=O)OCCOCCn2cc(C(=O)NC(=O)OCC)c(=O)[nH]c2=O)c(=O)[nH]c1=O`, the TGI in the experiment with M19-MEL melanoma, in the experiment on SNB-78 CNS, in the experiment with KM20L2 colon, with LXFL 529 NSCLC, in the experiment with RXF-631 renal and in the experiment with DLD-1 colon was more than 100 µM in each case. In addition, the TGI in the experiment on DMS 273 small cell lung is more than 100 µM.
Turning to `COC(=O)C(=O)C(C(=O)C(=O)Nc1ccccc1C(N)=O)c1nc2ccc(Cl)cc2[nH]c1=O` (stereo not given), the TGI with MDA-N is more than 100 µM.
Consider `CC1=C(C)CC2(CCCCC2=O)S(=O)C1` (stereo not given), for which the TGI in the experiment with M19-MEL melanoma, with SNB-78 CNS, with KM20L2 colon, in the experiment with LXFL 529 NSCLC, with XF 498 CNS and in the experiment with DLD-1 colon was more than 100 µM each time. In addition, in the experiment on DMS 273 small cell lung, the TGI is more than 100 µM.
`Cc1ccccc1N(CCC#N)C1=NN(C(=O)CC(=O)Nc2ccccc2)C(c2ccccc2)C1` (stereo not given): the TGI in the experiment on M19-MEL melanoma, with SNB-78 CNS, in the experiment on KM20L2 colon, in the experiment with LXFL 529 NSCLC, with RXF-631 renal and in the experiment on DLD-1 colon was more than 100 µM each time. This compound gave a TGI with DMS 273 small cell lung of more than 100 µM.
With `Cn1cc(C(=O)c2ccccc2)ccc1=O`, the TGI with M19-MEL melanoma, with SNB-78 CNS, with KM20L2 colon, in the experiment on LXFL 529 NSCLC, in the experiment with XF 498 CNS and in the experiment on DLD-1 colon was more than 100 µM in each case. In the experiment on DMS 273 small cell lung, the TGI is more than 100 µM.
With `CC[O-].CC[O-].O=C1c2ccccc2C(=O)c2c(O)ccc([O-])c21.O=C1c2ccccc2C(=O)c2c(O)ccc([O-])c21.[Ti+4]`, the TGI in the experiment on M19-MEL melanoma is 73.4 µM; with SNB-78 CNS, more than 100 µM; with KM20L2 colon, more than 100 µM; with LXFL 529 NSCLC, more than 100 µM; in the experiment on DLD-1 colon, more than 100 µM; with DMS 273 small cell lung, more than 100 µM. Besides, the GI50 with KM20L2 colon was more than 100 µM.
For the compound `CC(O)C(NC(=O)C(Cc1ccccc1)NC(=O)C(NC(=O)C(CCCCN)NC(=O)C(Cc1c[nH]c2ccccc12)NC(=O)C(Cc1ccc(O)cc1)NC(=O)C(Cc1ccc(Cl)cc1)NC(=O)C(N)Cc1ccccc1)C(C)O)C(N)=O` (stereo not given) (H-F[Phe(4-Cl)]YWKTFT-NH2; configuration not given here), the TGI in the experiment on M19-MEL melanoma was found to be 40.2 µM; in the experiment with SNB-78 CNS, 61 µM; in the experiment with KM20L2 colon it was 48.7 µM; with LXFL 529 NSCLC it was 39.4 µM; in the experiment on XF 498 CNS, 28.9 µM; in the experiment on RXF-631 renal, 42.4 µM. For the same compound, the TGI in the experiment with DLD-1 colon is 59.5 µM; with DMS 273 small cell lung, more than 100 µM.
Turning to `CN(C)P(=O)(/C(N)=N/Nc1ccc([N+](=O)[O-])cc1)N(C)C`, the TGI in the experiment on M19-MEL melanoma, in the experiment on SNB-78 CNS, in the experiment on KM20L2 colon, in the experiment on LXFL 529 NSCLC, with XF 498 CNS and with DLD-1 colon was more than 100 µM throughout. This compound also showed a TGI in the experiment with DMS 273 small cell lung of more than 100 µM.
With `COC(=O)c1cccc2cccc(C(=O)Nc3ccc(C)cc3C)c12`, the TGI in the experiment on M19-MEL melanoma, in the experiment on SNB-78 CNS, in the experiment on KM20L2 colon, in the experiment on LXFL 529 NSCLC, in the experiment on XF 498 CNS and in the experiment with RXF-631 renal was more than 100 µM in each case. In addition, the TGI with DLD-1 colon and in the experiment with DMS 273 small cell lung was more than 100 µM each time.
Compound `O=C(O)CC1OCC=C2CN3CCC45c6ccccc6NC4C1C2CC35` (stereo not given) came in with a TGI in the experiment on MDA-N of more than 100 µM.
As to `C=CCCCCCCCCC(=O)NS(=O)(=O)c1ccccc1`, the TGI in the experiment with M19-MEL melanoma, in the experiment on SNB-78 CNS, in the experiment on KM20L2 colon, in the experiment with LXFL 529 NSCLC, in the experiment on XF 498 CNS and in the experiment with RXF-631 renal was more than 100 µM throughout. Also, the TGI in the experiment on DLD-1 colon and in the experiment with DMS 273 small cell lung was more than 100 µM in each case.
`CCOC(=O)CN=c1nc(SC)sc2c(C(=O)OCC)nc(Sc3ccccc3)n12`: the TGI in the experiment with M19-MEL melanoma, in the experiment with KM20L2 colon, in the experiment with LXFL 529 NSCLC, in the experiment with XF 498 CNS, in the experiment with RXF-631 renal and in the experiment on DLD-1 colon was more than 100 µM in each case.
Compound `NC(CC(=O)OCc1ccccc1)C(=O)OCc1ccccc1` (stereo not given) came in with a TGI with MDA-N of more than 100 µM.
`COc1ccc2c(c1)C=C([N+](=O)[O-])C(C1OC(C)(C)OC1C1COC(C)(C)O1)O2` (stereo not given): the TGI in the experiment with M19-MEL melanoma was determined as 3.31 µM; in the experiment on SNB-78 CNS, 11.8 µM; in the experiment with KM20L2 colon it was 17.3 µM; in the experiment on LXFL 529 NSCLC, 13.8 µM; with XF 498 CNS it was 22.9 µM; in the experiment with DLD-1 colon, 3.15 µM. In the experiment with DMS 273 small cell lung, the TGI worked out at 9.22 µM.
